Test results from ChEMBL document CHEMBL1201862, “PubChem BioAssay data set” (2004).
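Step 1: Grow cells in 96-well plates. Step 2: Expose to compound for 48 hours at 5 concentrations. Step 3: Interpolate endpoints linearly; if unreached, use highest concentration. GI50 marks 50% less growth.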 Calls of active or inactive are those of the source. Rule as the data show it: active = GI50 up to about 1.1 µM and inactive = higher.

Tests used:
Test in all cases: DTP human tumour cell line panel, 48 h
[1] = system: 786-0
[2] = system: A549
[3] = system: CAKI-1
[4] = system: COLO 205
[5] = system: HCT-116
[6] = system: HOP-62
[7] = system: HOP-92
[8] = system: Hs-578T
[9] = system: M14
[10] = system: MDA-N
[11] = system: Malme-3M
[12] = system: NCI-H226
[13] = system: NCI/ADR-RES
[14] = system: SF-268
[15] = system: SK-MEL-28
[16] = system: SK-OV-3
[17] = system: SNB-19
[18] = system: SNB-75
[19] = system: SW-620
[20] = system: SK-MEL-5

Measured: GI50

CSC(=N/C=C/c1ccccc1)SC
inactive: [1] > 100 µM | [2] 60.3 µM | [3] > 100 µM | [4] > 100 µM | [5] > 100 µM | [6] > 100 µM | [7] > 100 µM | [8] 68.1 µM | [9] > 100 µM | [10] 55.6 µM | [11] > 100 µM | [12] > 100 µM | [13] > 100 µM | [14] > 100 µM | [15] > 100 µM | [16] > 100 µM | [17] > 100 µM | [18] > 100 µM | [19] > 100 µM

COC(=O)C(=O)C(C(=O)C(=O)Nc1ccc(C)cc1)c1nc2ccc(C(=O)c3ccccc3)cc2nc1O (configuration not stated)
inactive: [1] > 100 µM | [2] > 100 µM | [3] 39.4 µM | [5] > 100 µM | [6] 46.9 µM | [7] > 100 µM | [8] 57.3 µM | [10] 43.4 µM | [11] > 100 µM | [12] 95.5 µM | [13] 22.5 µM | [14] 73.6 µM | [15] > 100 µM | [20] 73.1 µM | [16] > 100 µM | [17] > 100 µM | [18] 22.3 µM | [19] > 100 µM

COC(CN(C(=O)c1ccccc1)C1CCC2(SCCS2)c2[nH]c3ccccc3c21)OC (configuration not stated)
inactive: [1] 37 µM | [2] 30.7 µM | [3] 21 µM | [4] 21.9 µM | [5] 32.3 µM | [6] 27.7 µM | [7] 7.24 µM | [8] 75.2 µM | [9] 30.7 µM | [10] 12.9 µM | [11] 25.2 µM | [12] 83.8 µM | [13] 18.1 µM | [14] > 100 µM | [15] 61.2 µM | [20] 26 µM | [17] 22.4 µM | [18] 20.2 µM | [19] 33.3 µM

Cc1cn(CC2=NCC(C)(C)N2)c(=O)[nH]c1=O
inactive: [1] > 100 µM | [2] > 100 µM | [4] > 100 µM | [5] > 100 µM | [6] > 100 µM | [7] > 100 µM | [8] > 100 µM | [9] > 100 µM | [10] > 100 µM | [11] > 100 µM | [12] > 100 µM | [13] > 100 µM | [14] > 100 µM | [15] > 100 µM | [20] > 100 µM | [16] > 100 µM | [17] > 100 µM | [18] > 100 µM | [19] > 100 µM

CC(C)OCC1CC(CC(=O)Nc2nncs2)C(=O)O1 (configuration not stated)
inactive: [1] > 100 µM | [2] > 100 µM | [3] > 100 µM | [4] > 100 µM | [5] > 100 µM | [6] > 100 µM | [7] > 100 µM | [8] > 100 µM | [9] > 100 µM | [10] > 100 µM | [12] > 100 µM | [13] > 100 µM | [14] > 100 µM | [15] > 100 µM | [20] > 100 µM | [16] > 100 µM | [17] > 100 µM | [18] > 100 µM | [19] > 100 µM

CC(C)=CCc1cc2c(cc1O)OC[C@H]1c3cc4c(cc3O[C@@H]21)OCO4
inactive: [1] 42.1 µM | [2] 80.4 µM | [3] 25.1 µM | [4] > 100 µM | [5] 17.1 µM | [6] 91.6 µM | [7] 23 µM | [8] 18.2 µM | [9] 62.1 µM | [10] 20.6 µM | [12] 23.8 µM | [13] 29.8 µM | [14] 56.6 µM | [15] 83.4 µM | [20] 20.3 µM | [16] > 100 µM | [17] 66.1 µM | [18] 78.7 µM | [19] 36.5 µM

CC1CCC2C(C)C(=O)OC2C2(C)C(=O)C=CC12 (configuration not stated)
inactive: [1] > 10 µM | [2] > 10 µM | [3] > 10 µM | [4] > 10 µM | [5] 7.76 µM | [6] > 10 µM | [7] > 10 µM | [8] > 10 µM | [9] > 10 µM | [10] 6.14 µM | [12] > 10 µM | [13] > 10 µM | [14] > 10 µM | [15] > 10 µM | [20] > 10 µM | [16] > 10 µM | [17] > 10 µM | [18] > 10 µM | [19] > 10 µM
